The source of these data is ChEMBL document CHEMBL1133811, “Small molecule/nucleic acid affinity chromatography: application for the identification of telomerase inhibitors which target its key RNA/DNA heteroduplex” (Bioorg Med Chem Lett, 2001).

Assay [1] deals with T1, Telomerase reverse transcriptase (Homo sapiens, UniProt O14746). As to the kind of experiment: Inhibitory activity against telomerase (Compound released from RNA/DNA heteroduplex derivatized resin [sequence (TTAGGG)3).
The target of assay [2] is T1, Telomerase reverse transcriptase. Description: Inhibitory activity against telomerase (Compound released from DNA/DNA heteroduplex derivatized resin [sequence (TTAGGG)3).
Assay [3] has the same target. Description: Inhibitory activity against telomerase (Compound released from underivatized resin.
Assay [4] has the same target. As to the kind of experiment: Inhibitory activity against telomerase at 50 uM concentration (Compound released from RNA/DNA heteroduplex derivatized resin [sequence (TTAGGG)3).
The target is the same in assay [5]. Description: Inhibitory activity against telomerase at 50 uM concentration (Compound released from underivatized resin.
For assay [6] the target is unchanged. As to the kind of experiment: Inhibitory activity against telomerase at 50 uM concentration (Compound released from DNA/DNA heteroduplex derivatized resin [sequence (TTAGGG)3).

Numbered stars: 1 amine (or outer) side, 2 acyl side, 3 side chain; on linkers, the order of the positions; unused ones are H or OH. Bridge positions count the residues as written; N and C are the ends. Square brackets hold non-standard residues; d marks the D form. Peptide text beside a SMILES is read from it. I, II: the chains in the order shown. Actinocin(9to1) = Cc1c2oc3c(C)ccc(C(=O)[*:1])c3nc-2c(C(=O)[*:2])c(N)c1=O; NMeV = CN[C@H](C(=O)O)C(C)C; Sar = CNCC(=O)O

T1 sequence (O14746 whole entry): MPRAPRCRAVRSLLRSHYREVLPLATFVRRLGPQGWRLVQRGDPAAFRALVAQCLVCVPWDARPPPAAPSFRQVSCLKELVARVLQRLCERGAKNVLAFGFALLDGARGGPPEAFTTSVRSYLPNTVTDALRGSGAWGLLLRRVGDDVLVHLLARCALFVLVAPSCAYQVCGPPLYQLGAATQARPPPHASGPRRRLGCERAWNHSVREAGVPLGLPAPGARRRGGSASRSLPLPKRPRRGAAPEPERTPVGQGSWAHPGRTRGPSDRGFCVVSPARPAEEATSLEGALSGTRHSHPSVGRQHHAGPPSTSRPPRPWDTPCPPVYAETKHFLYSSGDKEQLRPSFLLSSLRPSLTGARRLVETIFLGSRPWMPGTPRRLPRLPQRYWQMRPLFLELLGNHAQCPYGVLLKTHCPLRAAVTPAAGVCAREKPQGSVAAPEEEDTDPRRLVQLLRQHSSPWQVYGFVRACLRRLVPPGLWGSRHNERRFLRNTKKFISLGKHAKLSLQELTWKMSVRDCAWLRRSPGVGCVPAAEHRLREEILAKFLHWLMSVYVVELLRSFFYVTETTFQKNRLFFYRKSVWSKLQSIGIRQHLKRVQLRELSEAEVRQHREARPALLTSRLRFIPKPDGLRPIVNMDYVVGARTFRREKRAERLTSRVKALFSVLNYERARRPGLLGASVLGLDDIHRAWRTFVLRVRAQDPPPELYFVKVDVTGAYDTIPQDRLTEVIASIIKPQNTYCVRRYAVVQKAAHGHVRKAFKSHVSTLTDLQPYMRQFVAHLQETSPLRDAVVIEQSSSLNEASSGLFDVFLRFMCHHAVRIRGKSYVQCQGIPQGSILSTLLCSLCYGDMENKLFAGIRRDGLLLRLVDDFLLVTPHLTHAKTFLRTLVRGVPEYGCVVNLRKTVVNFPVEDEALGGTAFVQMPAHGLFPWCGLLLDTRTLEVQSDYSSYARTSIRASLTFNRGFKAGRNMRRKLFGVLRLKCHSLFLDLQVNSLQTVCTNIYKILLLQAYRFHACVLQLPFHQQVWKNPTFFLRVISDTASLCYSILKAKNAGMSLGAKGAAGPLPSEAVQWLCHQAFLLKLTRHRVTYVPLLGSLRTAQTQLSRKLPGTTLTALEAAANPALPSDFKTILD

One may read the IC50 as the concentration needed to halve the response being measured. In the case of `Cc1cc2cc3cc(C)c(N)cc3nc2cc1N`, the IC50 in assay [1], in assay [2] and in assay [3] was 21.7 µM each time.
A word on the inhibition: it is the relative decrease from the control value, in per cent. As to `COc1cccc2c1C(=O)c1c(O)c3c(c(O)c1C2=O)C[C@@](O)(C(=O)CO)C[C@@H]3O[C@H]1C[C@H](N)[C@H](O)[C@H](C)O1`, the inhibition in assay [4], in assay [5] and in assay [6] was less than 50% throughout.
For `COc1cccc2c1C(=O)c1c(O)c3c(c(O)c1C2=O)C[C@@](O)(C(C)=O)C[C@@H]3O[C@H]1C[C@H](N)[C@H](O)[C@H](C)O1`, the inhibition in assay [4], in assay [5] and in assay [6] was less than 50% in each case.
On to `Cc1c2oc3c(C)c(N)cc(C(=O)N[C@@H]4C(=O)N[C@H](C(C)C)C(=O)N5CCC[C@H]5C(=O)N(C)CC(=O)N(C)[C@@H](C(C)C)C(=O)O[C@@H]4C)c3nc-2c(C(=O)N[C@@H]2C(=O)N[C@H](C(C)C)C(=O)N3CCC[C@H]3C(=O)N(C)CC(=O)N(C)[C@@H](C(C)C)C(=O)O[C@@H]2C)c(N)c1=O`, for which the inhibition in assay [4], in assay [5] and in assay [6] was less than 50% in each case.
In the case of `Cc1c2oc3c(C)ccc(C(=O)N[C@@H]4C(=O)N[C@H](C(C)C)C(=O)N5CCC[C@H]5C(=O)N(C)CC(=O)N(C)[C@@H](C(C)C)C(=O)O[C@@H]4C)c3nc-2c(C(=O)N[C@@H]2C(=O)N[C@H](C(C)C)C(=O)N3CCC[C@H]3C(=O)N(C)CC(=O)N(C)[C@@H](C(C)C)C(=O)O[C@@H]2C)c(N)c1=O` (I: T[dV]P[Sar][NMeV] / II: T[dV]P[Sar][NMeV]; ester I:1-I:C, II:1-II:C; linker I:N-II:N via Actinocin(9to1)), the inhibition in assay [4], in assay [5] and in assay [6] was less than 50% throughout.
On to `CN(C)c1ccc2cc3ccc(N(C)C)cc3nc2c1` [ACRIDINE ORANGE], for which the IC50 in assay [1], in assay [2] and in assay [3] was 12.2 µM each time.
As for `CCOc1ccc2nc3cc(N)ccc3c(N)c2c1` [ETHACRIDINE], the IC50 in assay [1], in assay [2] and in assay [3] was 8.2 µM each time.
Take `CC[n+]1c(-c2ccccc2)c2cc(N)ccc2c2ccc(N)cc21` [HOMIDIUM BROMIDE]: the IC50 in assay [1], in assay [2] and in assay [3] was 3.3 µM throughout.
